The numbers were not newly measured in US20220257541A1, “Lacosamide for the Treatment of ADD/ADHD” (priority 2019, published 2022), which cites them from elsewhere.

The subject of series [1] is children who take methylphenidate. Conditions: cited from earlier work.
Series [2] deals with voltage-gated sodium channels. Conditions: cited from earlier work.

In the case of `COC(=O)C(c1ccccc1)C1CCCCN1` (centres unmarked) [methylphenidate], in series [1], the “proportion of children who develop symptoms of obsessive-compulsive behaviour” value is listed as “one third”.

Take `NC(=O)c1cn(Cc2c(F)cccc2F)nn1` [rufinamide, 1-[(2,6-difluorophenyl)methyl]-1H-1,2,3-triazole-4 carboxamide]: in series [2], the mechanism of action result was “act through voltage-gated sodium channels”.
